Results on two compounds are retold here after US12097192B2 (Corcept Therapeutics Incorporated, priority 2019, dated 2024).

For series [1], the system named is Cushing syndrome patients. To be noted: patients treated with either mifepristone or metyrapone; cited from earlier work.
The subject of series [2] is Cushing syndrome patients. The experiment in a line: Adverse events with other medical therapies for Cushing syndrome. Type of series: in vivo, human. To be noted: one patient treated previously with mifepristone.

`CC(C)(C(=O)c1cccnc1)c1cccnc1` [metyrapone]: in series [1], the drug induced hypokalemia result is on record as “commonly seen adverse event”. `CC#C[C@]1(O)CC[C@H]2[C@@H]3CCC4=CC(=O)CCC4=C3[C@@H](c3ccc(N(C)C)cc3)C[C@@]21C` [mifepristone]: in series [2], the “adverse event on previous therapy” value is “developed endometrial hypertrophy”.
